{"source": "patent US20050187409A1", "about": "“Inhibitors of RNase P proteins as antibacterial compounds” (priority 2003, published 2005)", "key": {"[1]": {"tested_on": "peripheral blood mononuclear cells (PBMC)", "assay": "Cellular toxicity assay (MTS) on PBMC", "format": "cell-based, human", "conditions": "24 hours incubation, MTS reagent; read-out: PBMC's TC50", "protocol": "Compounds of the invention (see Table 6) were assayed for cellular toxicity as follows. Whole blood was drawn from a volunteer, and the red cells were separated from the buffy coat cells by centrifugation over ficoll-paque. The resulting peripheral blood mononuclear cells (PBMC) were collected from the interface and washed extensively with PBS by centrifugation to remove platelets and cellular debris. The cells were then plated in 96-well tissue culture plates at a density of 5×10^5 cells per mL at 200 μL per well. After an hour incubation, the candidate compounds were added at the appropriate concentrations diluted from DMSO stocks into assay buffer (RPMI medium supplemented with 10% FCS). The cells were incubated at 37° C., 100% humidity and 5% CO2 for 24 hours at which time MTS reagent was added per the manufacturer's (Promega) instructions. After 2-3 hours incubation the optical density of the wells was read on a spectrophotometer. […] The data are evaluated using equation 2 as described in Example 17, where bacterial cells are replaced by PBMC cells in the measurements. The data describes the toxicity of these compounds to a representative human cell population (PBMC's)."}, "S. pyogenes": {"tested_on": "S. pyogenes", "assay": "Bacterial inhibition assay (growth, OD readout)", "format": "cell-based", "conditions": "CAMHB-3% LHB medium, 35° C., 16-20 hours", "protocol": "(§1) Compounds of the invention (see Table 5) were assayed for their ability to inhibit bacterial growth. Compounds were diluted from 10 mM DMSO stocks to 3 mM and 1 mM in DMSO. The compounds were further diluted from these stocks into saline for 200, 120, and 20 μM stocks. Control antibiotics were diluted similarly. Overnight cultures of bacteria were made in the following manner. N. gonorrhea was streaked onto a chocolate agar plate and incubated at 35° C./5% CO2. Rather than make an overnight culture of S. pyogenes, a loopful of S. pyogenes from a blood plate or a stock plate was used the following day for direct cell suspension.\n(§2) On the following day bacteria were prepared by dilution into saline with O.D. […] readings taken to determine the concentration of the bacteria. CFUs (colony forming units) were determined using the formula: CFU/mL=OD625×(1.5×10^8 CFU/mL/OD McFarland std)×dilution. The four bacterial cultures were diluted initially to 5.5×10^7 CFU/mL. The bacteria were then further diluted into medium to 5.5×10^5 CFU/mL for S. pyogenes and 5.5×10^6 CFU/mL for N. gonorrhea. S. pyogenes and N. gonorrhea were grown in CAMHB-3% LHB medium. The bacteria were added one per plate at 200 μL per well. Compounds were added in 10 μL aliquots for final concentrations of 10, 3, and 1 μM in duplicate. Control antibiotics, penicillin for S. pyogenes and ciprofloxacin for N. gonorrhea, were added from 0.8 mg/ml to 0.003 mg/ml. Plates were incubated at 35° C. with O2 for 16-20 hours for S. pyogenes, and read at OD665 in a Victor2 plate reader. Plates were incubated at 35° C. with 5% CO2 for 24 hours for N. gonorrhea at which time 40 μL of MTS reagent is added per well and incubated for 1 hour in same incubator. The plates were read at OD490. Compounds were tested at 1 μM, 3 μM, and 10 μM concentrations. The results, which are expressed as a percentage of the control, were calculated using equation 2. In this equation, O.D. is optical density; (O.D. compounds+bacteria) is the optical density observed for bacteria grown in the presence of a compound of the invention; (O.D. blank) is the optical density in the absence of bacteria; and (O.D. bacteria) is the optical density observed for bacteria growing uninhibited. Other RNase P inhibitors may be tested similarly using any bacteria of interest. [formula]"}, "N. gonorrhoeae": {"tested_on": "N. gonorrhoeae", "assay": "Bacterial inhibition assay (growth, MTS readout)", "format": "cell-based", "conditions": "CAMHB-3% LHB medium, 35° C., 5% CO2, 24 hours", "protocol": "as §1, §2"}, "[2]": {"target": "N. gonorrhea RNase P (M1 RNA + C5 protein) (Neisseria gonorrhoeae, UniProt Q5F4W3)", "assay": "Time resolved fluorescence (TRF) RNase P inhibition assay", "format": "biochemical", "conditions": "30 min enzyme reaction, ptGLN substrate; read-out: N. gonorrhoeae TRF IC50(μM) (Example 15)", "source_text": "The ability of compounds of the invention to inhibit RNase P enzymes can be assessed by standard techniques. For example, the cleavage of ptRNA^Gln by the enzyme N. Gonorrhea RNase P, can be monitored in the presence and absence of a candidate compound as described in the Example 15. The progress of the RNase P-mediated cleavage reaction can be assessed by measuring the […] hybridized to the cleaved substrate.\nTime Resolved Fluorescence RNase P Inhibition Assay\n96-well Nunc MaxiSorp FluoroNunc plates were coated with 50 μl/well of 1 μg/ml of streptavidin in base buffer (150 mM KCl, 5 mM MgCl2, 50 mM Tris, pH 7.6) and incubated overnight. The plates were washed using TRF.96 protocol, and then blocked with 150 μl of a 1 mg/ml BSA solution in base buffer and incubated with shaking for sixty minutes. The plates were then washed twice with base buffer plus 0.01% Tween20. 50 μl of 40 nM T17-bt (biotinylated DNA oligonucleotide complementary to the RNaseP substrate leader sequence used to capture intact RNaseP substrate) was then added to all wells, and the plates were incubated with shaking for 1 hr.\nA 0.4 nM solution of N. gonorrhea M1 RNA was made from a 1 μM stock solution. A 0.5 nM solution of N. gonorrhea C5 protein is made by diluting a 10 μM stock. ΔUL-ptGLN UTP-bt (10 μM stock) was diluted into PA buffer for a concentration of 40 nM.\nCompounds were serially diluted in DMSO from 20 mM stocks to 6, 2, 0.6, 0.2, and 0.06 mM dilutions. These titrations were then diluted (2 μl to 100) in PA buffer, and 12.5 μl of each concentration was added in duplicate to a 96-well V-bottom polypropylene plate. The highest concentration was put in row G and the lowest in row B. Rows A & H received 12.5 μl of DMSO/PA buffer.\nThe enzyme reaction was initiated in the V-bottom polypropylene plates containing compound dilutions by adding 12.5 μl of the N. gonorrhea M1 solution to rows A-G. PA buffer was added to row H. 12.5 μl of the C5 solution was added similarly to the M1 solutions. 12.5 μl of the substrate solution was then added to all wells. The plates were incubated for 30 minutes at which time 12.5 μl of stop buffer was added to all wells. (Stop buffer: 500 μg/ml polyC/50 nM SA-Eu in 335 mM MgCl2 PA buffer).\nThe T17-biotin-coated plate was washed three times, and 37.5 μl of 75 mM MgCl2 PA buffer was added to each well. After 30 minutes incubation with the stop buffer, 12.5 μl from all of the enzyme reaction wells was transferred to the T17 plates. The plates were then incubated for 1.5 hr at room temperature with shaking. The plates were washed three times and 40 μl of Delfia enhancement solution (Wallac Oy) was added to all wells. The plates were then read on the Victor 2 plate reader."}, "[3]": {"target": "T1, N. gonorrhoeae RNase P holoenzyme (Neisseria gonorrhoeae, UniProt Q5F4W3)", "T1 sequence (Q5F4W3 1-121)": "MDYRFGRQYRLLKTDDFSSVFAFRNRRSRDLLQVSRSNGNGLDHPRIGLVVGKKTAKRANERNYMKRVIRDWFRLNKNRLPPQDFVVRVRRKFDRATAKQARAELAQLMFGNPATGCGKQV", "assay": "biochemical", "conditions": "32P-labelled pGln substrate, room temperature; read-out: N. gonorrhoeae Gel assay IC50(μM) (Example 16)", "protocol": "RNase P Inhibition Polyacrylamide Gel Assay\nThe substrate, the precursor of tRNA^Gln, (pGln), from Synechocystis (Pascual and Vioque, 1999), was synthesized in vitro from the corresponding cDNA by T7 RNA polymerase in the presence of α^32P-GTP. Each control RNase P reaction of 10 μl contained 50 mM Tris-HCl (pH 7.8), 10 mM MgCl2, 100 mM NH4Cl, 1 mM dithiothreitol, and 0.4-1.0 pmol pGln substrate, radiolabeled to a specific activity of 1000-10,000 cpm/pmol. The reaction mixture, containing 0.1-1 nM holoenzyme, was incubated for 5-60 min at room temperature (18-24° C.), and the reaction was terminated by addition of an equal volume of 40 mM EDTA/8 M urea. The samples were electrophoresed in denaturing 8% polyacrylamide gels. The activity was quantified by exposure of the gel to a phosphorimaging screen. For test reactions that require the addition of compounds, the RNA subunits were pre-incubated with compound for 10 min at room temperature in the presence of buffer, followed by addition of the protein subunit. After a further 10 minutes of incubation, the radiolabeled substrate was added, and the reaction initiated. Products were analyzed as just described. The IC50 was the concentration of compound that was required to inhibit RNase P activity by 50%."}}}
{"compound": "CC(=NNC(=N)N)c1cccc(NC(=O)[C@H](Cc2ccc(-c3ccccc3)cc2)NC(=O)c2cccc(I)c2)c1", "note": "[MES 10908, Guanylhydrazone of (S)-1-(3-iodobenzoyl)-N-(3-acetylphenyl)biphenyl-alaninamide]", "values": [{"measurement": "CC50", "setting": "[1]", "value": 5, "unit": "µM"}, {"measurement": "MIC", "setting": "S. pyogenes", "value": 10, "unit": "µM"}, {"measurement": "MIC", "setting": "N. gonorrhoeae", "value": ">100", "unit": "µM"}, {"measurement": "IC50", "setting": "[2]", "value": 5, "unit": "µM"}, {"measurement": "IC50", "setting": "[3]", "value": 6, "unit": "µM"}]}
